What was measured:
p38α MAP kinase = p38α MAP kinase (Homo sapiens, UniProt Q16539); experiment: Radiometric 33PanQinase p38α MAP kinase assay (ProQinase), ATF2 substrate; assay type: biochemical; conditions: for remaining activity at 10 µM: compound at 10 μM, in duplicate, read-out: Residual Activity (%) p38α
Text: We selected p38α MAP kinase to survey the selectivity profile of this series of compounds because its kinase domain is among the most homologous to that of ALK5 [27].
(§1) All kinase experiments were completed by the ProQinase (Freiburg, Germany). All protein kinases were expressed in Sf9 insect cells or in E. coli as recombinant GST-fusion proteins or His-tagged proteins, either as full-length or enzymatically active fragments. All kinases were obtained from human cDNAs and purified by either GSH-affinity chromatography or immobilized metal. The purity of the protein kinases was examined by SDS-PAGE/Coomassie staining. The identity was checked by mass spectroscopy.
(§2) A radiometric protein kinase assay (^33PanQinase® activity assay) was used for measuring the kinase activity of the two protein kinases. All kinase assays were performed in 96-well FlashPlates^TM from PerkinElmer (Boston, MA, USA) in 50 μL reaction volumes. The reaction cocktail was pipetted in four steps in the following order: 20 μL of assay buffer (standard buffer), 5 μL of ATP solution (in H2O), 5 μL of test compound (in 10% DMSO), 20 μL enzyme/substrate mix.
(§3) The assay for all protein kinases contained 70 mM HEPES-NaOH pH 7.5, 3 mM MgCl2, 3 mM MnCl2, 3 μM Na-orthovanadate, 1.2 mM DTT, 50 μg/mL PEG20000, ATP, [γ-^33P]-ATP, protein kinase, and substrate.
(§4) The reaction cocktail was incubated at 30 °C for 60 min. The reaction was halted with 50 μL of 2% (v/v) H3PO4, plates were aspirated and washed two times with 200 μL 0.9% (w/v) NaCl. Incorporation of ^33Pi was established with a microplate scintillation counter (PerkinElmer, Boston, MA, USA). All assays were performed with a BeckmanCoulter/SAGIAN™ Core System.

ALK5 [1] = target: T1, ALK5 (Homo sapiens, UniProt P36897); experiment: Radiometric 33PanQinase ALK5 kinase assay (ProQinase), casein substrate; assay type: biochemical; conditions: for remaining activity at 10 µM: compound at 10 μM, in duplicate, read-out: Residual Activity (%) ALK5
T1 sequence (P36897 205-495 limits assumed): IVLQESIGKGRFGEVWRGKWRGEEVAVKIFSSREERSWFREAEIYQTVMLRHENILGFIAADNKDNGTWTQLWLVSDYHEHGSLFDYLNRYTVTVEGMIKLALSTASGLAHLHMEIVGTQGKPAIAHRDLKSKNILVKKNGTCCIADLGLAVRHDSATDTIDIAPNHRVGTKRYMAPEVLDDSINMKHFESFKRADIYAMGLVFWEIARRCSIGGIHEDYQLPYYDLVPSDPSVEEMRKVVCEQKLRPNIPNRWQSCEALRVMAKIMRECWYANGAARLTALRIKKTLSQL
Procedure: To investigate whether compounds 14a–d, 15a–d, 16a–d, 17a–d, 18a–d, and 19a–d would inhibit ALK5, a kinase assay for preliminary screening was performed using the purified human ALK5 kinase domain produced in Sf9 insect cells and compounds at 10 μM.
as §1, §2, §3, §4

ALK5 [2] = tested on: ALK5; parameters: method as in PMID 16271073; conditions: cited from earlier work

Chain of p38α MAP kinase (Q16539 whole entry, the tested form may be a part): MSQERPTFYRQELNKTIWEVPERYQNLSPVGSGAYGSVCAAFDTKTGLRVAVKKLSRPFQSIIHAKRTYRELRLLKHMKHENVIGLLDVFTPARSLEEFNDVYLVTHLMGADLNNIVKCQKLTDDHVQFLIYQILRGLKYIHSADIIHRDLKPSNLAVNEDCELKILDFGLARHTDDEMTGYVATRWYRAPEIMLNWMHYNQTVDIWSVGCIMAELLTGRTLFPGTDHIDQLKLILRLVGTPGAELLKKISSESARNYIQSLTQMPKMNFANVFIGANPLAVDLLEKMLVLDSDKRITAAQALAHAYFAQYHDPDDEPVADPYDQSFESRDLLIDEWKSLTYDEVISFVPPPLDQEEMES

Row | Compound | melting point | IC50 (p38α MAP kinase) | remaining activity at 10 µM (p38α MAP kinase) | IC50 (ALK5 [1]) | remaining activity at 10 µM (ALK5 [1]) | Selectivity Index (ALK5 [1]; IC50 of p38α/IC50 of ALK5) | IC50 (ALK5 [2])
1 | CN(C)c1cccc(-c2nn(CC(=S)Nc3cccc(C#N)c3)cc2-c2ccc3nccnc3c2)n1 [Compound 18d, N-(3-Cyanophenyl)-2-(3-(6-(dimethylamino)pyridin-2-yl)-4-(quinoxalin-6-yl)-1H-pyrazol-1-yl)ethanethioamide] | 108.5 to 110 °C | > 10 µM | 119% | > 10 µM | 54% |  | 
2 | CN(C)c1cccc(-c2nn(CC(=S)Nc3ccccc3)cc2-c2ccc3nccnc3c2)n1 [Compound 18a, 2-(3-(6-(Dimethylamino)pyridin-2-yl)-4-(quinoxalin-6-yl)-1H-pyrazol-1-yl)-N-phenylethanethioamide] | 182 to 184 °C | > 10 µM | 119% | 5.75 µM | 29% | >2 | 
3 | CN(C)c1cccc(-c2c(-c3ccc4nccnc4c3)cnn2CC(=O)Nc2cccc(F)c2)n1 [Compound 15c, 2-(5-(6-(Dimethylamino)pyridin-2-yl)-4-(quinoxalin-6-yl)-1H-pyrazol-1-yl)-N-(3-fluorophenyl)acetamide] | 146.5 to 147.6 °C |  | 109% |  | 88% |  | 
4 | Cc1csc(-c2nn(CC(=O)Nc3cccc(F)c3)cc2-c2ccc3nccnc3c2)n1 [Compound 16c, N-(3-Fluorophenyl)-2-(3-(4-methylthiazol-2-yl)-4-(quinoxalin-6-yl)-1H-pyrazol-1-yl)acetamide] | 212.1 to 213.5 °C |  | 101% |  | 3% |  | 
5 | Cc1cccc(-c2nn(C(=S)Nc3ccccc3)cc2-c2ccnc3ccccc23)n1 [Compound 6, A-83-01] |  |  |  |  |  |  | 0.012 µM
6 | CN(C)c1cccc(-c2c(-c3ccc4nccnc4c3)cnn2CC(=O)Nc2cccc(C#N)c2)n1 [Compound 15d, N-(3-Cyanophenyl)-2-(5-(6-(dimethylamino)pyridin-2-yl)-4-(quinoxalin-6-yl)-1H-pyrazol-1-yl)acetamide] | 145.5 to 148 °C |  | 109% |  | 94% |  | 
7 | Cc1csc(-c2nn(CC(=O)Nc3ccccc3)cc2-c2ccc3nccnc3c2)n1 [Compound 16a, 2-(3-(4-Methylthiazol-2-yl)-4-(quinoxalin-6-yl)-1H-pyrazol-1-yl)-N-phenylacetamide] | 190.2 to 192.5 °C |  | 98% |  | 5% |  | 
8 | Cc1csc(-c2nn(CC(=O)Nc3cccc(C#N)c3)cc2-c2ccc3nccnc3c2)n1 [Compound 16d, N-(3-Cyanophenyl)-2-(3-(4-methylthiazol-2-yl)-4-(quinoxalin-6-yl)-1H-pyrazol-1-yl)acetamide] | 222.3 to 223 °C |  | 108% |  | 3% |  | 
9 | CN(C)c1cccc(-c2nn(CC(=S)Nc3ccccc3F)cc2-c2ccc3nccnc3c2)n1 [Compound 18b, 2-(3-(6-(Dimethylamino)pyridin-2-yl)-4-(quinoxalin-6-yl)-1H-pyrazol-1-yl)-N-(2-fluorophenyl)ethanethioamide] | 88.3 to 91.2 °C | > 10 µM | 125% | > 10 µM | 70% |  | 
10 | CN(C)c1cccc(-c2nn(CC(=O)Nc3ccccc3F)cc2-c2ccc3nccnc3c2)n1 [Compound 14b, 2-(3-(6-(Dimethylamino)pyridin-2-yl)-4-(quinoxalin-6-yl)-1H-pyrazol-1-yl)-N-(2-fluorophenyl)acetamide] | 190.5 to 193 °C |  | 118% |  | 84% |  | 
